Patent publication US20250257041A1, “INDUCERS OF INTEGRATED STRESS RESPONSE TO TREAT CANCER” (The Board of Regents of The University of Texas System, priority 2022, published 2025)

Test system: HCT116 WT
Assay: Proliferation of HCT116 colorectal cell line, Cell TiterGlo
Assay type: cell-based, human
Conditions: Homo sapiens, HCT-116, read-out: HCT116 IC50 (uM) HCT116 WT
Method: Briefly, compounds were tested for their effect on proliferation of HCT116 colorectal cell lines using Cell TiterGlo (Promega). Each compound was tested in a 10-point dose response experiment in triplicate. Multiple values in the column titled HCT116 WT reflect separate independent experiments. The three columns titled “HCT116 WT (repeat)”, “HCT116-CGN2KO” and “HCT116 WT+ISRIB” provide data for selected compounds that were tested simultaneously under three conditions. The HCT116 WT column lists IC50 against the wild type HCT116 colorectal cancer cell line. The HCT116-CGN2KO lists IC50 data for cells in which one component of the integrated stress response, GCN2, has been knocked out using CRISPR technology.

| Compound | IC50 [µM] |
| --- | --- |
| Cn1nc(-c2ccc(NC(=O)c3ccccc3COCCN=[N+]=[N-])cc2)cc1NC(=O)c1cccc(C2(C(F)(F)F)N=N2)c1 [SW394739, 2-((2-azidoethoxy)methyl)-N-(4-(1-methyl-5-(3-(3-(trifluoromethyl)-3H-diazirin-3-yl)benzamido)-1H-pyrazol-3-yl)phenyl)benzamide] | 0.4 |

Same assay, conditions: Homo sapiens, HCT-116, wild type HCT116; 10-point dose response in triplicate; multiple values = separate independent experiments; read-out: HCT116 IC50 (uM) HCT116 WT

| Compound | IC50 [µM] |
| --- | --- |
| Cn1nc(-c2ccc(NC(=O)c3ccccc3)cc2)cc1NC(=O)c1ccccc1 [SW106593, N-(4-(5-Benzamido-1-methyl-1H-pyrazol-3-yl)phenyl)benzamide] | 0.22 |
| Cc1ncccc1C(=O)Nc1ccc(-c2cc(NC(=O)c3ccccc3Cl)n(C)n2)c(F)c1 [SW394699, N-(4-(5-(2-chlorobenzamido)-1-methyl-1H-pyrazol-3-yl)-3-fluorophenyl)-2-methylnicotinamide] | 0.02 |
| Cc1ncccc1C(=O)Nc1ccc(-c2cc(NC(=O)c3ccccc3)n(C)n2)cc1F [SW394743, N-(4-(5-Benzamido-1-methyl-1H-pyrazol-3-yl)-2-fluorophenyl)-2-methylnicotinamide] | 15 |
| COc1ccc(C(=O)Nc2cc(-c3ccc(NC(=O)OC(C)(C)C)cc3)nn2C)cc1 [SW388709, tert-Butyl-(4-(5-(4-methoxybenzamido)-1-methyl-1H-pyrazol-3-yl)phenyl)carbamate] | 16 |
| Cn1nc(-c2ccc(NC(=O)c3ccccc3COCCNC(=O)OC(C)(C)C)cc2)cc1NC(=O)c1ccccc1 [SW394532, tert-butyl (2-((2-((4-(5-benzamido-1-methyl-1H-pyrazol-3-yl)phenyl)carbamoyl)benzyl)oxy)ethyl)carbamate] | 0.121 |
| Cn1nc(-c2ccc(NC(=O)c3ccccc3Cl)cc2)cc1NC(=O)c1cccc(C#CCN)c1 [SW394693, N-(4-(5-(3-(3-aminoprop-1-yn-1-yl)benzamido)-1-methyl-1H-pyrazol-3-yl)phenyl)-2-chlorobenzamide] | 0.17 |
| Cc1ncccc1C(=O)Nc1ccc(-c2cc(NC(=O)c3ccccc3)n(C)n2)c(F)c1 [SW394694, N-(4-(5-Benzamido-1-methyl-1H-pyrazol-3-yl)-3-fluorophenyl)-2-methylnicotinamide] | 0.03 |
| O=C(Nc1ccc(-c2cc(NC(=O)c3ccccc3)on2)cc1)c1ccccc1 [SW394572, N-(4-(5-benzamidoisoxazol-3-yl)phenyl)benzamide] | 5.8 |
| Cn1nc(-c2ccc(NC(=O)c3ccccc3C3CCNCC3)cc2)cc1NC(=O)c1ccccc1 [SW394767, N-(4-(5-benzamido-1-methyl-1H-pyrazol-3-yl)phenyl)-2-(piperidin-4-yl)benzamide] | 0.27 |
| Cn1nc(-c2ccc(NC(=O)c3ccccc3N3CCOCC3)cc2)cc1NC(=O)c1ccccc1 [SW394697, N-(4-(5-Benzamido-1-methyl-1H-pyrazol-3-yl)phenyl)-2-morpholinobenzamide] | 0.77 |
| Cn1nc(-c2ccc(NC(=O)c3ccccc3Cl)cc2)cc1NC(=O)C1CCCC(NC(=O)OC(C)(C)C)C1 (single isomer, unassigned) [SW394868-isomer 2] | 0.12 |
| CN1CCN(c2ccccc2C(=O)Nc2ccc(-c3cc(NC(=O)c4ccccc4)n(C)n3)cc2)CC1 [SW394698, N-(4-(5-Benzamido-1-methyl-1H-pyrazol-3-yl)phenyl)-2-(4-methylpiperazin-1-yl)benzamide] | 10 |
| Cn1nc(-c2ccc(NC(=O)c3ccccc3COCCNC(=O)CCCC[C@H]3SC[C@H]4NC(=O)N[C@H]43)cc2)cc1NC(=O)c1ccccc1 [SW394656, N-(4-(5-benzamido-1-methyl-1H-pyrazol-3-yl)phenyl)-2-((2-(5-((3aR,4R,6aS)-2-oxohexahydro-1H-thieno[3,4-d]imidazol-4-yl)pentanamido)ethoxy)methyl)benzamide] | 0.071 |
| Cn1nc(-c2ccc(NC(=O)c3ccccc3Cl)cc2)cc1NC(=O)N1CCCC1 [SW394876, N-(3-(4-(2-Chlorobenzamido)phenyl)-1-methyl-1H-pyrazol-5-yl)pyrrolidine-1-carboxamide] | 0.19 |
| Cn1nc(-c2ccc(NC(=O)c3ccccc3COCc3cn(CCOCCNC(=S)Nc4ccc(-c5c6ccc(=O)cc-6oc6cc(O)ccc56)c(C(=O)O)c4)nn3)cc2)cc1NC(=O)c1ccccc1 [SW393345, 5-(3-(2-(2-(4-(((2-((4-(5-benzamido-1-methyl-1H-pyrazol-3-yl)phenyl)carbamoyl)benzyl)oxy)methyl)-1H-1,2,3-triazol-1-yl)ethoxy)ethyl)thioureido)-2-(6-hydroxy-3-oxo-3H-xanthen-9-yl)benzoic acid] | 11.4 |
| COc1cc(-c2cc(NC(=O)c3ccccc3)n(C)n2)ccc1NC(=O)c1ccccc1Cl [SW393279, N-(4-(5-benzamido-1-methyl-1H-pyrazol-3-yl)-2-methoxyphenyl)-2-chlorobenzamide] | > 10 |
| Cc1ncccc1C(=O)Nc1ccc(-c2cc(NC(=O)c3ccccc3F)n(C)n2)c(F)c1 [SW394695, N-(3-Fluoro-4-(5-(2-fluorobenzamido)-1-methyl-1H-pyrazol-3-yl)phenyl)-2-methylnicotinamide] | 0.03 |

| Compound | IC50 [µM] |
| --- | --- |
| Cn1nc(-c2ccc(NC(=O)c3ccccc3Cl)cc2)cc1NC(=O)c1cccc(C(=O)c2ccccc2)c1 [SW393187, N-(4-(5-(3-benzoylbenzamido)-1-methyl-1H-pyrazol-3-yl)phenyl)-2-chlorobenzamide] | 0.14 |
| Cc1ncncc1C(=O)Nc1ccc(-c2cc(NC(=O)c3ccccc3)n(C)n2)cc1 [SW394598, N-(4-(5-Benzamido-1-methyl-1H-pyrazol-3-yl)phenyl)-4-methylpyrimidine-5-carboxamide] | 0.55 |
| COC(=O)c1cccc(C(=O)Nc2cc(-c3ccc(NC(=O)c4ccccc4Cl)cc3)nn2C)c1 [SW394878, Methyl 3-((3-(4-(2-chlorobenzamido)phenyl)-1-methyl-1H-pyrazol-5-yl)carbamoyl)benzoate] | 0.01 |
| Cn1nc(-c2ccc(NC(=O)c3ccccc3Cl)cc2)cc1NC(=O)C1CCC(F)(F)CC1 [SW394602, 2-Chloro-N-(4-(5-(4,4-difluorocyclohexane-1-carboxamido)-1-methyl-1H-pyrazol-3-yl)phen-yl)benzamide] | 0.049 |
| Cn1nc(-c2ccc(NC(=O)c3ccccc3F)cc2)cc1NC(=O)c1ccccc1 [SW393241, N-(4-(5-Benzamido-1-methyl-1H-pyrazol-3-yl)phenyl)-2-fluorobenzamide] | 0.04 |
| Cn1nc(-c2ccc(NC(=O)C3CCCO3)cc2)cc1NC(=O)c1ccccc1 (single isomer, unassigned) [SW394516 (isomer 2)] | 0.77 |
| Cn1nc(-c2ccc(NC(=O)c3ccccc3Cl)cc2)cc1NC(=O)C1CCOCC1 [SW394547, N-(3-(4-(2-Chlorobenzamido)phenyl)-1-methyl-1H-pyrazol-5-yl)tetrahydro-2H-pyran-4-car-boxamide] | 0.05 |
| Cn1nc(-c2ccc(NC(=O)c3cccnc3Cl)cc2)cc1NC(=O)c1ccccc1 [SW394443, N-(4-(5-Benzamido-1-methyl-1H-pyrazol-3-yl)phenyl)-2-chloronicotinamide] | 0.02 |
| Cn1nc(-c2ccc(NC(=O)c3cccnc3C(F)(F)F)cc2)cc1NC(=O)c1ccccc1Cl [SW394631, N-(4-(5-(2-Chlorobenzamido)-1-methyl-1H-pyrazol-3-yl)phenyl)-2-(trifluoromethyl)nicotinamide] | 0.022 |
| Cn1nc(-c2ccc(C(=O)Nc3ccccc3Cl)cc2)cc1NC(=O)c1ccccc1 [SW393293, 4-(5-benzamido-1-methyl-1H-pyrazol-3-yl)-N-(2-chlorophenyl)benzamide] | 0.19 |
| Cn1nc(-c2ccc(NC(=O)C3CCC3)cc2)cc1NC(=O)c1ccccc1 [SW394491, N-(3-(4-(Cyclobutanecarboxamido)phenyl)-1-methyl-1H-pyrazol-5-yl)benzamide] | 12 |
| Cc1ncccc1C(=O)Nc1ccc(-c2cc(NC(=O)c3ccccc3F)n(C)n2)cc1F [SW394745, N-(2-Fluoro-4-(5-(2-fluorobenzamido)-1-methyl-1H-pyrazol-3-yl)phenyl)-2-methylnicotinamide] | 21.7 |
| Cn1nc(-c2ccc(NC(=O)c3ccccc3-c3ccccc3)cc2)cc1NC(=O)c1ccccc1 [SW393270, N-(4-(5-benzamido-1-methyl-1H-pyrazol-3-yl)phenyl)-[1,1′-biphenyl]-2-carboxamide] | 0.13 |
| CC(=O)Nc1cccc(C(=O)Nc2cc(-c3ccc(NC(=O)c4ccccc4Cl)cc3)nn2C)c1 [SW394894-1, N-(4-(5-(3-acetamidobenzamido)-1-methyl-1H-pyrazol-3-yl)phenyl)-2-chlorobenzamide] | 0.01 |
| Cn1nc(-c2ccc(NC(=O)C3CCCCCC3)cc2)cc1NC(=O)c1ccccc1 [SW394515, N-(4-(5-Benzamido-1-methyl-1H-pyrazol-3-yl)phenyl)cycloheptanecarboxamide] | 0.044 |
| C#Cc1cccc(C(=O)Nc2cc(-c3ccc(NC(=O)c4cccnc4Cl)cc3)nn2C)c1 [SW394487, 2-Chloro-N-(4-(5-(3-ethynylbenzamido)-1-methyl-1H-pyrazol-3-yl)phenyl)nicotinamide] | 0.023 |

Same assay, conditions: wild type HCT116; 10-point dose response in triplicate; multiple values = separate independent experiments

| Compound | HCT116 IC50 (uM) HCT116 WT |
| --- | --- |
| Cn1nc(-c2ccc(NC(=O)c3ccccc3Cl)cc2)cc1NC(=O)c1cccc(C(=O)O)c1 [SW394800, 3-((3-(4-(2-Chlorobenzamido)phenyl)-1-methyl-1H-pyrazol-5-yl)carbamoyl)benzoic acid] | inactive |
| O=C(Nc1ccc(-c2nnc(NC(=O)c3ccccc3Cl)o2)cc1)c1ccccc1Cl [SW394597, 2-chloro-N-(4-(5-(2-chlorobenzamido)-1,3,4-oxadiazol-2-yl)phenyl)benzamide] | inactive |
